Source: patent US8598203B2 (Teva Pharmaceutical Industries, Ltd., priority 2009, dated 2013)

How the values were obtained:
[1] = test system: subjects with moderate to severe Crohn's disease (CDAI score of 220-450); test: Phase IIa clinical trial of oral laquinimod in active moderate to severe Crohn's disease; type: in vivo, human; conditions: for dependence on steroids: moderate to severe Crohn's disease; for C-Reactive Protein level / clinical remission / clinical response / disease progression and/or disease complication / fecal calprotein level / number of open draining fistulas / symptoms of Crohn's disease: moderate to severe Crohn's disease (CDAI 220-450)
Method: Overall up to ˜180 Crohn's disease patients are enrolled. […] The capsules were prepared using a blend proportional to the 0.6 mg capsules described in PCT International Application No. PCT/US2007/013721 (WO 2007/146248). The capsules were prepared according to the method described in PCT International Application No. PCT/US2007/013721 (WO 2007/146248), which is hereby incorporated by reference into this application. A loading dose regimen of double the maintenance/intended dose is given during the first two days of study drug treatment. Thereafter, starting on day 3, the daily maintenance/intended dose is administered. Subjects are required to maintain CDAI diary cards for each day of the screening period and, if randomized, on each day of the treatment and follow-up period. The scores obtained from the seven consecutive diaries completed prior to the baseline visit and to each of weeks 1, 2, 4, 6, 8 and 12 contribute to a total CDAI score at each of the time points. Moderate to severe Crohn's disease (CD) subjects as determined by a Crohn's Disease Activity Index (CDAI) score of 220-450 (inclusive). […] Each dose is studied sequentially in a distinct cohort. Scheduled in-clinic visits are conducted at screening, baseline and at weeks 1, 2, 4, 6 and 8. […] Subjects who early-discontinues study drug prior to visit week 8 go to follow-up termination visit within 4 weeks (28 days) of study drug discontinuation. A loading dose regimen of the study drug is given during the first two days of treatment (day 1/baseline and thereafter). The first loading dose of the study is administered at the site. The loading dose is double the intended dose for the first two days and is administered twice daily (BID) with 12 hour interval between dosing. Thereafter, starting on day 3, the dosing regimen consists of the intended dose once daily (QD) (see Table 1): • 1. Day 1 (Baseline): loading dose of the drug (intended dose at 0 hour, at the site and intended dose at 12 hours). Total dose is twice the intended dose. • 2. Day 2: loading dose of the study drug (intended dose at 0 hour and intended dose at 12 hours). Total dose is twice the intended dose. • 3. Day 3: Intended/maintenance dose of the study drug. […] Proportion of subjects in clinical remission (total CDAI score <150) at weeks 4, 6, 8 and 12. • 2. Proportion of subjects who respond to treatment (decrease from baseline of at least 100 points in CDAI score ore remission) at week 4, 6, 8 and 12. • 3. Time to remission. • 4. Time to response. • 5. C-Reactive Protein (CRP) change from baseline at weeks 2, 4, 6, 8 and 12. • 6. Fecal calprotectin change from baseline to weeks 2, 4, 6, 8 and 12. • 7. Proportion of subjects with a decrease from baseline of at least 50% in the number of open draining fistulas. Safety/Tolerability • 1. Adverse events (AEs). • 2. Clinical laboratory values. • 3. Vital signs. • 4. ECG. • 5. Proportion of subjects who prematurely discontinue treatment. • 6. Proportion of subjects who prematurely discontinue treatment due to AEs. • 7. Time to premature treatment discontinuation. • 8. Time to premature treatment discontinuation due to AEs. Determination of the Highest Tolerable Dose

[2] = previous pharmacokinetic studies of laquinimod (time to steady state, oral bioavailability); type: in vivo; conditions: with loading dose regimen (double the intended dose for the first two days)
Text: In order to decrease thee time to steady state and potentially decrease time to response, a loading dose regimen described below is used to allow steady state levels to be reached in approximately 6-7 days.

[3] = background statement; cited from earlier work

SMILES: CCN(C(=O)c1c(O)c2c(Cl)cccc2n(C)c1=O)c1ccccc1 [laquinimod]
- dependence on steroids ([1]; 0.5 mg/day oral): lowers
- C-Reactive Protein level ([1]; 0.5 mg/day oral): lowers
- clinical remission ([1]; 0.5 mg/day oral): induces and/or maintains
- clinical response ([1]; 0.5 mg/day oral): induces
- disease progression and/or disease complication ([1]; 0.5 mg/day oral): inhibits
- fecal calprotein level ([1]; 0.5 mg/day oral): lowers
- number of open draining fistulas ([1]; 0.5 mg/day oral): reduces
- symptoms of Crohn's disease ([1]; 0.5 mg/day oral): reduces
- dependence on steroids ([1]; 1.0 mg/day oral): lowers
- C-Reactive Protein level ([1]; 1.0 mg/day oral): lowers
- clinical remission ([1]; 1.0 mg/day oral): induces and/or maintains
- clinical response ([1]; 1.0 mg/day oral): induces
- disease progression and/or disease complication ([1]; 1.0 mg/day oral): inhibits
- fecal calprotein level ([1]; 1.0 mg/day oral): lowers
- number of open draining fistulas ([1]; 1.0 mg/day oral): reduces
- symptoms of Crohn's disease ([1]; 1.0 mg/day oral): reduces
- dependence on steroids ([1]; 1.5 mg/day oral): lowers
- C-Reactive Protein level ([1]; 1.5 mg/day oral): lowers
- clinical remission ([1]; 1.5 mg/day oral): induces and/or maintains
- clinical response ([1]; 1.5 mg/day oral): induces
- disease progression and/or disease complication ([1]; 1.5 mg/day oral): inhibits
- fecal calprotein level ([1]; 1.5 mg/day oral): lowers
- number of open draining fistulas ([1]; 1.5 mg/day oral): reduces
- symptoms of Crohn's disease ([1]; 1.5 mg/day oral): reduces
- dependence on steroids ([1]; 2.0 mg/day oral): lowers
- C-Reactive Protein level ([1]; 2.0 mg/day oral): lowers
- clinical remission ([1]; 2.0 mg/day oral): induces and/or maintains
- clinical response ([1]; 2.0 mg/day oral): induces
- disease progression and/or disease complication ([1]; 2.0 mg/day oral): inhibits
- fecal calprotein level ([1]; 2.0 mg/day oral): lowers
- number of open draining fistulas ([1]; 2.0 mg/day oral): reduces
- symptoms of Crohn's disease ([1]; 2.0 mg/day oral): reduces
- time to reach steady state levels [2]: 6 to 7 days
- oral bioavailability [3]: high oral bioavailability
